# Results taken from patent US20190209697A1, “CELLS LABELLED WITH LIPID CONJUGATES AND METHODS OF USE THEREOF” (priority 2015, published 2019).
# System: Jurkat cells
# Experiment: Efficiency of incorporation of AF488-capped glycopolymers into cell membranes, flow cytometry
# Assay type: cell-based
# Conditions: 10 μM AF488-capped polymer, 1 h at RT
# Method: Using AF488 labeled polymers, the efficiency with which each glycopolymer was incorporated into cell membranes was measures. Jurkat cells (10^7/mL in serum-free media) were incubated for 1 h at room temperature with 10 μM lipid-conjugated glycopolymer, washed, and then measured for fluorescence by flow cytometry (FIG. 4, panel A).
# Jurkat cells were incubated with 10 μM of AF488-capped polymer for 1 h at RT, washed and their fluorescence measured by flow cytometry. […] For FIG. 4-FIG. 5, shown are mean minus background+/−standard deviation of three replicate experiments.
# Jurkat cells (10^7/mL) were incubated with AF488-polymers at the given concentration or PBS in serum free media for 1 hr at RT. The cells were then washed, and their fluorescence measured by flow cytometry. Shown are mean and standard deviation of three replicate experiments minus background as measured by cells incubated with PBS instead of polymer.
substance,measurement,value
DMPC,level of incorporation into cell membranes,highest levels of incorporation
